Measured values: ChEMBL document CHEMBL1201862, “PubChem BioAssay data set” (2004)
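Step 1: Grow cells in 96-well plates. Step 2: Expose to compound for 48 hours at 5 concentrations. Step 3: Interpolate endpoints linearly; if unreached, use highest concentration. GI50: concentration for 50% inhibition of growth.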 Activity calls are given as the source filed them. No stated cut-off is given here; in the data, active = GI50 up to about 1.1 µM and inactive = higher.

Assays:
Assay in all cases: growth of human tumour cells (NCI), 48 h
[1] = system: 786-0
[2] = system: A549
[3] = system: ACHN
[4] = system: BT-549
[5] = system: CAKI-1
[6] = system: CCRF-CEM
[7] = system: COLO 205
[8] = system: DU-145
[9] = system: EKVX
[10] = system: HCC 2998
[11] = system: HCT-116
[12] = system: HCT-15
[13] = system: HOP-62
[14] = system: HOP-92
[15] = system: HT-29
[16] = system: Hs-578T
[17] = system: IGROV-1
[18] = system: K562
[19] = system: KM12
[20] = system: LOX IMVI
[21] = system: M14
[22] = system: MCF7
[23] = system: MDA-MB-231
[24] = system: MDA-MB-435
[25] = system: MDA-N
[26] = system: MOLT-4
[27] = system: Malme-3M
[28] = system: NCI-H226
[29] = system: NCI-H23
[30] = system: NCI-H460
[31] = system: NCI-H522
[32] = system: NCI/ADR-RES
[33] = system: OVCAR-3
[34] = system: OVCAR-4
[35] = system: OVCAR-5
[36] = system: OVCAR-8
[37] = system: PC-3
[38] = system: RXF 393
[39] = system: SF-268
[40] = system: SF-295
[41] = system: SF-539
[42] = system: SK-MEL-28
[43] = system: SK-MEL-5
[44] = system: SK-OV-3
[45] = system: SN12C
[46] = system: SNB-19
[47] = system: SNB-75
[48] = system: SW-620
[49] = system: T47D
[50] = system: TK-10
[51] = system: U-251
[52] = system: UACC-257
[53] = system: UACC-62
[54] = system: UO-31
[55] = system: A498
[56] = system: HL-60
[57] = system: RPMI-8226
[58] = system: SK-MEL-2

COc1cc2c(cc1OC)CN1CCCc3cc(OC)c(OC)cc3C1C2 (stereo not given)
GI50 [1]: 33.2 µM (inactive) | GI50 [2]: 55 µM (inactive) | GI50 [3]: 34.1 µM (inactive) | GI50 [4]: 99.3 µM (inactive) | GI50 [5]: 38.6 µM (inactive) | GI50 [6]: 48.9 µM (inactive) | GI50 [7]: 40.9 µM (inactive) | GI50 [8]: 76 µM (inactive) | GI50 [9]: 44 µM (inactive) | GI50 [10]: 33.7 µM (inactive) | GI50 [11]: 23.1 µM (inactive) | GI50 [12]: 41.6 µM | GI50 [13]: 25 µM (inactive) | GI50 [14]: 21.4 µM (inactive) | GI50 [15]: 19.6 µM (inactive) | GI50 [16]: 40.8 µM (inactive) | GI50 [17]: 22 µM (inactive) | GI50 [18]: 48.3 µM (inactive) | GI50 [19]: 50 µM (inactive) | GI50 [20]: 25.4 µM (inactive) | GI50 [21]: 40.6 µM (inactive) | GI50 [22]: 31 µM (inactive) | GI50 [23]: 56.5 µM (inactive) | GI50 [24]: 18.1 µM (inactive) | GI50 [25]: 17.3 µM (inactive) | GI50 [26]: 88.1 µM (inactive) | GI50 [27]: 30.3 µM (inactive) | GI50 [28]: 27.9 µM (inactive) | GI50 [29]: 52.4 µM (inactive) | GI50 [30]: 31.4 µM (inactive) | GI50 [31]: 29.4 µM (inactive) | GI50 [32]: > 100 µM (inactive) | GI50 [33]: 39.3 µM (inactive) | GI50 [34]: 62.4 µM (inactive) | GI50 [35]: 51.3 µM (inactive) | GI50 [36]: 57.7 µM (inactive) | GI50 [37]: 39.8 µM (inactive) | GI50 [38]: 29.6 µM (inactive) | GI50 [39]: 61 µM (inactive) | GI50 [40]: 12.9 µM (inactive) | GI50 [41]: 24.3 µM (inactive) | GI50 [42]: 32 µM (inactive) | GI50 [43]: 36.1 µM (inactive) | GI50 [44]: 63.4 µM (inactive) | GI50 [45]: 42.7 µM (inactive) | GI50 [46]: 36.9 µM (inactive) | GI50 [47]: 13.2 µM (inactive) | GI50 [48]: 30.5 µM (inactive) | GI50 [49]: 22.9 µM (inactive) | GI50 [50]: 51.4 µM (inactive) | GI50 [51]: 36.6 µM (inactive) | GI50 [52]: 67.5 µM (inactive) | GI50 [53]: 29.6 µM (inactive) | GI50 [54]: 43.1 µM (inactive)

COC(=O)[C@H](Cc1ccccc1)NC(=O)c1ccc(CNC(=O)/C=C/c2ccc(-c3ccccc3)cc2)cc1
GI50 [1]: 3.56 µM (inactive) | GI50 [55]: > 100 µM (inactive) | GI50 [2]: > 100 µM (inactive) | GI50 [3]: > 100 µM (inactive) | GI50 [4]: 24.9 µM (inactive) | GI50 [5]: 65 µM (inactive) | GI50 [6]: 6.62 µM (inactive) | GI50 [7]: > 100 µM (inactive) | GI50 [8]: > 100 µM (inactive) | GI50 [9]: > 100 µM (inactive) | GI50 [10]: 11.5 µM (inactive) | GI50 [11]: 4.95 µM (inactive) | GI50 [12]: > 100 µM | GI50 [56]: 25.9 µM (inactive) | GI50 [13]: 15.6 µM (inactive) | GI50 [14]: 80.9 µM (inactive) | GI50 [15]: 3.71 µM (inactive) | GI50 [16]: 22.8 µM (inactive) | GI50 [17]: > 100 µM (inactive) | GI50 [18]: 77.1 µM (inactive) | GI50 [19]: > 100 µM (inactive) | GI50 [21]: 94.6 µM (inactive) | GI50 [22]: > 100 µM (inactive) | GI50 [23]: 22.1 µM (inactive) | GI50 [24]: > 100 µM (inactive) | GI50 [25]: > 100 µM (inactive) | GI50 [26]: > 100 µM (inactive) | GI50 [27]: 24.9 µM (inactive) | GI50 [28]: > 100 µM (inactive) | GI50 [29]: 27.8 µM (inactive) | GI50 [30]: > 100 µM (inactive) | GI50 [32]: 59.8 µM (inactive) | GI50 [33]: > 100 µM (inactive) | GI50 [34]: > 100 µM (inactive) | GI50 [35]: 59.4 µM (inactive) | GI50 [36]: 7.1 µM (inactive) | GI50 [37]: > 100 µM (inactive) | GI50 [57]: > 100 µM (inactive) | GI50 [38]: 11.1 µM (inactive) | GI50 [39]: 15.2 µM (inactive) | GI50 [40]: 19.7 µM (inactive) | GI50 [42]: > 100 µM (inactive) | GI50 [58]: > 100 µM (inactive) | GI50 [43]: > 100 µM (inactive) | GI50 [44]: 57.8 µM (inactive) | GI50 [45]: > 100 µM (inactive) | GI50 [46]: 12.6 µM (inactive) | GI50 [47]: 10.5 µM (inactive) | GI50 [48]: > 100 µM (inactive) | GI50 [49]: > 100 µM (inactive) | GI50 [50]: 68.1 µM (inactive) | GI50 [51]: 5.97 µM (inactive) | GI50 [52]: > 100 µM (inactive) | GI50 [53]: 44.2 µM (inactive) | GI50 [54]: > 100 µM (inactive)

O=C1CSC(=S)N1c1ccc(F)cc1F
GI50 [1]: > 100 µM (inactive) | GI50 [55]: 67.9 µM (inactive) | GI50 [2]: 61.9 µM (inactive) | GI50 [3]: 53.7 µM (inactive) | GI50 [4]: 39.6 µM (inactive) | GI50 [5]: 45.3 µM (inactive) | GI50 [6]: 25.6 µM (inactive) | GI50 [7]: 46.2 µM (inactive) | GI50 [8]: > 100 µM (inactive) | GI50 [9]: 94.8 µM (inactive) | GI50 [10]: 34.8 µM (inactive) | GI50 [11]: > 100 µM (inactive) | GI50 [12]: 36.2 µM | GI50 [13]: > 100 µM (inactive) | GI50 [14]: 30.2 µM (inactive) | GI50 [15]: 90.8 µM (inactive) | GI50 [16]: 41.3 µM (inactive) | GI50 [17]: 51.6 µM (inactive) | GI50 [19]: > 100 µM (inactive) | GI50 [20]: 36.5 µM (inactive) | GI50 [21]: 40.9 µM (inactive) | GI50 [22]: 21.7 µM (inactive) | GI50 [23]: > 100 µM (inactive) | GI50 [24]: 35.6 µM (inactive) | GI50 [25]: 36.3 µM (inactive) | GI50 [27]: 66.5 µM (inactive) | GI50 [28]: > 100 µM (inactive) | GI50 [29]: 46.5 µM (inactive) | GI50 [30]: 83.2 µM (inactive) | GI50 [31]: 18 µM (inactive) | GI50 [32]: 42.2 µM (inactive) | GI50 [33]: 41.3 µM (inactive) | GI50 [34]: 49.2 µM (inactive) | GI50 [36]: 58.3 µM (inactive) | GI50 [37]: > 100 µM (inactive) | GI50 [57]: 24.4 µM (inactive) | GI50 [38]: 72.9 µM (inactive) | GI50 [39]: 44.6 µM (inactive) | GI50 [40]: 44.8 µM (inactive) | GI50 [41]: 38.7 µM (inactive) | GI50 [42]: 78.7 µM (inactive) | GI50 [58]: 61.2 µM (inactive) | GI50 [43]: 25.4 µM (inactive) | GI50 [44]: > 100 µM (inactive) | GI50 [45]: > 100 µM (inactive) | GI50 [46]: 76.6 µM (inactive) | GI50 [47]: 42.3 µM (inactive) | GI50 [48]: > 100 µM (inactive) | GI50 [49]: 30 µM (inactive) | GI50 [50]: 94.4 µM (inactive) | GI50 [51]: 59.2 µM (inactive) | GI50 [52]: 43.8 µM (inactive) | GI50 [53]: 70.8 µM (inactive) | GI50 [54]: 89.9 µM (inactive)

O=S1(=O)c2ccccc2-c2nccc3ccnc1c23
GI50 [1]: 25.5 µM (inactive) | GI50 [55]: 27.5 µM (inactive) | GI50 [3]: 8.57 µM (inactive) | GI50 [4]: 3.77 µM (inactive) | GI50 [5]: 15.3 µM (inactive) | GI50 [6]: 4.02 µM (inactive) | GI50 [7]: 3.99 µM (inactive) | GI50 [8]: 11.3 µM (inactive) | GI50 [9]: 15.4 µM (inactive) | GI50 [10]: 12.8 µM (inactive) | GI50 [11]: 12.9 µM (inactive) | GI50 [12]: 7.87 µM | GI50 [56]: 4.76 µM (inactive) | GI50 [13]: 40.7 µM (inactive) | GI50 [14]: 24.3 µM (inactive) | GI50 [15]: 5.58 µM (inactive) | GI50 [16]: 32.1 µM (inactive) | GI50 [17]: 7.67 µM (inactive) | GI50 [18]: 4.33 µM (inactive) | GI50 [19]: 22.8 µM (inactive) | GI50 [20]: 12.6 µM (inactive) | GI50 [21]: 19.1 µM (inactive) | GI50 [22]: 6.4 µM (inactive) | GI50 [23]: 17.8 µM (inactive) | GI50 [24]: 11.9 µM (inactive) | GI50 [25]: 7.87 µM (inactive) | GI50 [26]: 2.72 µM (inactive) | GI50 [27]: 21.8 µM (inactive) | GI50 [28]: 43.5 µM (inactive) | GI50 [29]: 14.6 µM (inactive) | GI50 [30]: 13.1 µM (inactive) | GI50 [31]: 8.07 µM (inactive) | GI50 [32]: 20.8 µM (inactive) | GI50 [33]: 10.3 µM (inactive) | GI50 [34]: 37.9 µM (inactive) | GI50 [35]: 41.2 µM (inactive) | GI50 [36]: 15 µM (inactive) | GI50 [37]: 7.31 µM (inactive) | GI50 [57]: 16.2 µM (inactive) | GI50 [38]: 34 µM (inactive) | GI50 [39]: 23.5 µM (inactive) | GI50 [40]: 25 µM (inactive) | GI50 [41]: 8.57 µM (inactive) | GI50 [42]: 55.6 µM (inactive) | GI50 [58]: 28.7 µM (inactive) | GI50 [43]: 4.82 µM (inactive) | GI50 [44]: 56.9 µM (inactive) | GI50 [45]: 17.8 µM (inactive) | GI50 [46]: 23.2 µM (inactive) | GI50 [47]: 27.7 µM (inactive) | GI50 [48]: 7.23 µM (inactive) | GI50 [49]: 29.4 µM (inactive) | GI50 [50]: 20.8 µM (inactive) | GI50 [51]: 28.1 µM (inactive) | GI50 [52]: 28.5 µM (inactive) | GI50 [53]: 7.59 µM (inactive) | GI50 [54]: 8.24 µM (inactive)
